The text below walks through data of publication PMC4298791 (Angewandte Chemie (International Ed. in English), 2014).

One may read the ΔTm as the shift of the melting midpoint relative to a reference.

Assay [1] deals with T1, CREBBP bromodomain (Homo sapiens, UniProt Q92793).
T1 construct: amplify the bromodomain region of the; made in house
As to the kind of experiment: AlphaScreen peptide displacement assay. The assay is classed as binding. The procedure:
AlphaScreen Peptide Displacement Assay: Bromodomain AlphaScreen assays were carried out as
previously described.11,34 All experiments were carried out in duplicate and, within a table, on the same plate. […]
(In Alpha technology, singlet oxygen from a donor bead excites a nearby acceptor bead.)

Another assay deals with LOC93349A (Homo sapiens, UniProt Q9H930). The experiment in a line: Differential scanning fluorimetry (ΔTm). The conditions noted are these: read-out: ΔTm LOC93349A. Background: Differential scanning fluorimetry follows unfolding on heating by fluorescence.
Assay [2] has as its target T1, CREBBP bromodomain. The experiment in a line: Isothermal titration calorimetry (ITC). Particulars: 15 °C. The assay is classed as binding. The protocol:
(§1) Isothermal Titration Calorimetry (ITC): Experiments were carried out on a VP-ITC titration microcalorimeter from MicroCal™ , LLC (Northampton, MA) with a cell volume of 1.4189 ml and a 250 µl microsyringe equipped with a ThermoVac module.
(§2) The microsyringe was loaded with a solution of the protein sample (200-500 µM protein in ITC buffer) and was carefully inserted into the calorimetric cell which was filled with an amount of the ligand ([…], 20-30 µM in ITC buffer). The system […]
(§3) applied. All titrations were conducted using an initial control injection of 2 µl followed by up to 34 identical injections of 8 µl with a duration of 4 sec per injection and a spacing of 250 sec between injections. The titration experiments were designed in such a fashion, as to ensure complete saturation of the enzymes before […]
(§4) corrected for protein heats of dilution (measured on separate experiments by titrating the proteins into ITC buffer) and deconvoluted using the MicroCal™ Origin software supplied with the instrument to yield enthalpies of binding (∆H) and binding constants (KB) in the same fashion to that previously described in detail by Wiseman and coworkers.35 Thermodynamic parameters were calculated using the basic equation of thermodynamics (∆G = ∆H − T∆S = −RTlnKB, where ∆G, ∆H and ∆S are the changes in free energy, enthalpy […]
(§5) and entropy of binding respectively).
(§6) MicroCal™ Origin software package.
(ITC needs no label: the signal is the heat of the interaction.)

Another assay has as its target BRD4(1) (Homo sapiens, UniProt O60885). As to the kind of experiment: Isothermal titration calorimetry (ITC). In kind it is binding. Particulars: 15 °C. The procedure: as §1, §2, §3, §4, §5, §6
In assay [3] the test system is GFP chimerized to multimerized CREBBP bromodomains in U2OS cells. The experiment in a line: Fluorescence recovery after photobleaching (FRAP) assay. The assay is classed as cell-based. The protocol: To determine the utility of (R)-2 in a cellular setting a FRAP assay was conducted.
The bleached area is indicated by a red circle. B) Half times of fluorescence recovery (t1/2) of U2OS cells expressing green fluorescent protein (GFP) chimerized to multimerized CREBBP bromodomains with or without 2.5 μM SAHA (indicated by †).
CREBBP bromodomain from chromatin. A) Time dependence of fluorescent recovery in the bleached area of U2OS cells expressing GFP chimerised to multimerised CREBBP bromodomains. Curves represent the means at each time point of 15 cells in each group (see Figure 3A for representative images of cell nuclei). B) Half times of fluorescence recovery (t½) of cells expressing GFP chimerised to multimerised CREBBP bromodomains. Bars represent the mean t½ calculated from individual recovery curves of 15 cells per group. * […]
as §5
MicroCal™ Origin software package. […]
crystallization robot (TTP Labtech, Royston UK).
50+100 nl). […] All crystallizations were carried out […]
followed by manual building in COOT42.

In another assay the target is T2, CREBBP (Homo sapiens, UniProt Q92793).
T2 construct: amplify the bromodomain region of the; made in house
As to the kind of experiment: Differential scanning fluorimetry (ΔTm). In kind it is binding. The conditions noted are these: DSF; protein 2 µM, compound 10 µM.

The next assay deals with T3, BAZ2B (Homo sapiens, UniProt Q9UIF8).
T3 sequence (Q9UIF8 2060-2164 limits assumed): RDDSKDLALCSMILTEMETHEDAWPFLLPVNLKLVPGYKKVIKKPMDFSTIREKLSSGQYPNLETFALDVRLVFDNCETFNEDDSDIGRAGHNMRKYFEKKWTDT
As to the kind of experiment: Differential scanning fluorimetry (ΔTm). The conditions noted are these: read-out: ΔTm BAZ2B.

In another assay the target is T4, TIF1α (Homo sapiens, UniProt O15164).
T4 sequence (O15164 899-1004 limits assumed): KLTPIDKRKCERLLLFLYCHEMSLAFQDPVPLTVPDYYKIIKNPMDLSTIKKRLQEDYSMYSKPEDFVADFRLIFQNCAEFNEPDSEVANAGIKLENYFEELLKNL
The experiment in a line: Differential scanning fluorimetry (ΔTm). The conditions noted are these: read-out: ΔTm TIF1α.

For another assay, the target named is T5, BRD9 (Homo sapiens, UniProt Q9H8M2).
T5 sequence (Q9H8M2 136-240 limits assumed): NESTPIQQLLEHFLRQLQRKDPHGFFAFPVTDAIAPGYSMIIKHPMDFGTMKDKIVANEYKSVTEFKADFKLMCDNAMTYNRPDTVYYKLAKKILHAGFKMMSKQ
The experiment in a line: Differential scanning fluorimetry (ΔTm). Particulars: read-out: ΔTm BRD9.

For the next assay, the target named is PB1(1) (Homo sapiens, UniProt Q86U86). As to the kind of experiment: Differential scanning fluorimetry (ΔTm). The conditions noted are these: read-out: ΔTm PB1(1).
Another assay deals with T6, BRPF3 (Homo sapiens, UniProt Q9ULD4).
T6 sequence (Q9ULD4 589-693 limits assumed): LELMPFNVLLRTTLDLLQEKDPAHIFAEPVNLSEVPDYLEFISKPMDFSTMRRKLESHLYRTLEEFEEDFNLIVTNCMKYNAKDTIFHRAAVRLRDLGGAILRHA
The experiment in a line: Differential scanning fluorimetry (ΔTm). Particulars: read-out: ΔTm BRPF3.

In the next assay the target is T7, PCAF (Homo sapiens, UniProt Q92831).
T7 sequence (Q92831 723-827 limits assumed): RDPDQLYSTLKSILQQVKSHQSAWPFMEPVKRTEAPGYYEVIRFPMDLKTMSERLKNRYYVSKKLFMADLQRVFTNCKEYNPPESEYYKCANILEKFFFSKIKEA
As to the kind of experiment: Differential scanning fluorimetry (ΔTm). The conditions noted are these: read-out: ΔTm PCAF.

For assay [4], the target named is T1, CREBBP bromodomain. The arrangement: method as in PMID 21804994, PMID 21851057. The conditions noted are these: cited from earlier work.
The mark [5] stands for this setting: peptide and protein concentration = 25 nM, range in parentheses, read-out: IC50/nM vs CREBBP.

Read-outs that look alike come from different tables or passages of the source.

T1 sequence (Q92793 1085-1192 limits assumed): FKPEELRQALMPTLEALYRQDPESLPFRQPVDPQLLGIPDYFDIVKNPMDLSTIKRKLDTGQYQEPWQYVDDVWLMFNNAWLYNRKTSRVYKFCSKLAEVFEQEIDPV
Chain of PB1(1) (Q86U86 41-151 limits assumed): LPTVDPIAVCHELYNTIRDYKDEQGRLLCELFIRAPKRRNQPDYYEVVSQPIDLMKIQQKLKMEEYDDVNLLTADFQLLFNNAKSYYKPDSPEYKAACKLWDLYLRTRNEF
T2 sequence (Q92793 1085-1192 limits assumed): as the sequence (Q92793 1085-1192 limits assumed) above
Chain of LOC93349A (Q9H930 467-570 limits assumed): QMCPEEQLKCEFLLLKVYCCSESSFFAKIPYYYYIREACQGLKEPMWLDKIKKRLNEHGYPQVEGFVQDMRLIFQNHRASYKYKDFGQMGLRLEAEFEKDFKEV
Protocol for LOC93349A: (§7) Differential Scanning Fluorimetry: Bromodomain ΔTm assay was performed as reported previously,34 with protein at a final concentration of 2 µM and compound at 10 µM.
Protocol for PB1(1): as §7

For the molecule `COc1ccc2c(c1)N(CCCNC(=O)c1c(F)ccc3c1N[C@H](C)C(=O)N3)CCC2` [(R)-8], the IC50 at CREBBP bromodomain [1] (setting [5]) is 2550 nM.

In the case of `COc1ccc2c(c1)CCCN2CCCNC(=O)c1cccc2c1N[C@H](C)C(=O)N2` [(R)-6], the IC50 on CREBBP bromodomain [1] (setting [5]) stood at 1410 nM.

Consider `CC1Oc2c(cccc2C(=O)NCCN2CCc3ccccc32)NC1=O` (stereo not shown) [compound 3], for which the IC50 on CREBBP bromodomain [1] (read-out: CREBBP IC50) was found to be 77000 nM.

For the molecule `COc1ccc2c(c1)N(CCCNC(=O)c1cccc3c1N[C@H](C)C(=O)N3)CCC2` [(R)-2], the ΔTm at 10 µM on LOC93349A was 0.3 °C; on CREBBP, 5.4 °C; at BAZ2B it was less than 0.5 °C; on TIF1α, 0.7 °C; on BRD9, less than 1.1 °C; at PB1(1) it was less than 0.1 °C. Besides, the ΔTm at 10 µM worked out at 0.5 °C on BRPF3 and 0 °C on PCAF. In addition, the “TΔS of binding to CREBBP” value on CREBBP bromodomain [2] is -2.40 kcal/mol. In addition, the “ΔH of binding to CREBBP” value at CREBBP bromodomain [2] (error = error in fitting) is -6.12 ± 0.04 kcal/mol. In addition, the “−TΔS of binding to BRD4” value at BRD4(1) is -1.36 kcal/mol. Moreover, the “ΔH of binding to BRD4” value on BRD4(1) (error = error in fitting) is -6.42 ± 0.12 kcal/mol. In addition, in assay [3] (1, 5, 10 µM (R)-2 in presence of 2.5 μM SAHA), the “half time of fluorescence recovery (t1/2) compared to wild-type cells” value is given as “dose-dependently reduced”. In addition, in assay [3] (1, 5, 10 µM, with 2.5 μM SAHA), the “displacement of CREBBP bromodomain from chromatin (FRAP)” value is “can displace the CREBBP bromodomain from chromatin”.

Turning to `C[C@H]1Nc2c(cccc2C(=O)NCCCN2CCOc3ccccc32)NC1=O` [(R)-5], the IC50 at CREBBP bromodomain [1] (setting [5]) was determined as 549 nM.

Take `C[C@H]1Nc2c(cccc2C(=O)NCCCN2CCCc3ccccc32)NC1=O` [(R)-1]: the IC50 on CREBBP bromodomain [1] (setting [5]) was determined as 758 nM; on CREBBP bromodomain [1] (read-out: CREBBP IC50), 760 nM.

Regarding `CC1Oc2c(cccc2C(=O)NCCCN2CCCc3ccccc32)NC1=O` (stereo not shown) [compound 4], on CREBBP bromodomain [1] (read-out: CREBBP IC50), the IC50 stood at 51000 nM.

For `COc1ccc2c(c1)N(CCCNC(=O)c1cc(F)cc3c1N[C@H](C)C(=O)N3)CCC2` [(R)-7], on CREBBP bromodomain [1] (setting [5]), the IC50 stood at 1530 nM.

On to `C[C@@H]1Nc2c(cccc2C(=O)NCCCN2CCCc3ccccc32)NC1=O` [(S)-1], for which the IC50 at CREBBP bromodomain [1] (setting [5]) was determined as 6870 nM.

`CN1CCCC1=O` [N-methyl-2-pyrrolidone (NMP), N-methyl-2-pyrrolidone]: at CREBBP bromodomain [4] (AlphaScreen), the IC50 was 1900 µM. In addition, on CREBBP bromodomain [4] (from AlphaScreen IC50 vs CREBBP bromodomain), the ligand efficiency was 0.54.
